# Assay results taken from patent US20130309224A1 (BOEHRINGER INGELHEIM INTERNATIONAL GMBH, priority 2012, published 2013).
# T1: mouse CD37 (mouse, UniProt Q61470 1-281, limits assumed)
# T1 sequence (looked up): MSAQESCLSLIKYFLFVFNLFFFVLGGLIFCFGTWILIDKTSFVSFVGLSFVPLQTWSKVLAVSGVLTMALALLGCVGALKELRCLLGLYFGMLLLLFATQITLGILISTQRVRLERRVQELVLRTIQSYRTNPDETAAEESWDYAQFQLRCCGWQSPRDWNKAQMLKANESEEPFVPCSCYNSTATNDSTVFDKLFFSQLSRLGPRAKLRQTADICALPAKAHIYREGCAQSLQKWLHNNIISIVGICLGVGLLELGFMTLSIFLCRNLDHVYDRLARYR
# T2: human CD37 (human, UniProt P11049 1-281, limits assumed)
# T2 sequence (looked up): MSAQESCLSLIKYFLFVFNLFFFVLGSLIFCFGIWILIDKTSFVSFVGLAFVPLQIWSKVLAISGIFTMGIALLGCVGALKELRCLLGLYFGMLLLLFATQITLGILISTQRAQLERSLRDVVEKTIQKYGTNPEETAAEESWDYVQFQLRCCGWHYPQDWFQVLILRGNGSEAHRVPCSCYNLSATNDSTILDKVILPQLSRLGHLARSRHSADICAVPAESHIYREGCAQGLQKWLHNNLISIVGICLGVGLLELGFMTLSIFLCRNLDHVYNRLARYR
# Legend:
# [1] = tested on: Raji Burkitt lymphoma cells; test: Apoptosis assay (Annexin V/PI staining, FACS) on Raji cells; type: cell-based; conditions: 48 h, A2 10 μg/ml, AnnexinV positive cells corrected for background
# [2] = tested on: DoHH2 tumor cells; test: Example 2: DoHH2 human xenograft tumor model, A2 with bendamustine; type: in vivo, CB-17 SCID mice; conditions: A2 10 mg/kg twice weekly, bendamustine 10 mg/kg twice weekly ip; compared to control treated animals
# [3] = tested on: Ramos Burkitt lymphoma cells; test: Apoptosis assay (Annexin V/PI staining, FACS) on Ramos cells; type: cell-based, human; conditions: 48 h, A2 10 μg/ml, AnnexinV positive cells corrected for background
# [4] = Example 4: body weight as indicator of tolerability; conditions: for tolerability / body weight loss (in words): A2 10 mg/kg, bendamustine 20 mg/kg i.p.
# [5] = tested on: human follicular lymphoma (DOHH2); test: Example 4: DOHH2 follicular lymphoma xenograft, A2 with bendamustine, tumor volume; type: in vivo, C.B-17 scid mice
# [6] = target: T1, mouse CD37; test: not described (statement in the discussion of Example 3)
# [7] = target: T2, human CD37; test: as above
# [8] = bendamustine concentration 400 μM
binding result [6],binding result [7],Molecule,% apoptotic cells ([1]; bendamustine concentration 200 μM) [%],"% apoptotic cells [1, 8] [%]",anti-tumor effect (tumor growth retardation) [2],% apoptotic cells ([3]; bendamustine concentration 100 μM) [%],"% apoptotic cells [3, 8] [%]",tolerability / body weight loss (in words) [4],tolerability / body weight loss (in words) ([4]; listed as Bendamustine),body weight loss in median within the first week of treatment ([4]; bendamustine i.p. day 2 and 6),"inhibition of DOHH2 tumor growth (in words) ([5]; A2 10 mg/kg, bendamustine 20 mg/kg i.p.)","CR [x/7] ([5]; complete tumor regressions, day 16)",tumors growth inhibited (of 7 treated) ([5]; day 16) [tumors],"TGI [%] ([5]; median, day 16, vs vehicle control, A2 10 mg/kg i.p. d1,d5,d8,d12,d15, bendamustine 20 mg/kg i.p. two injections)","PR [x/7] ([5]; partial tumor regressions, day 16)"
,,"Cn1c(CCCC(=O)O)nc2cc(N(CCCl)CCCl)ccc21 [bendamustine, 4-[5-[Bis(2-chloroethyl)amino]-1-methylbenzimidazol-2-yl]butanoic acid, reference compound]",10,13,significant anti-tumor effect,19,35,moderately tolerated,resulted in weight loss,up to 7.9%,significant inhibition of tumor growth,0,7,57,0
no binding,binds,"Antibody A2 (antibody, human IgG1, kappa, V domains shown, also called mAb A2; MAb A2) VH: AVQLQQSGPELEKPGASVKISCKASGYSFTGYNMNWVKQNNGKSLEWIGNIDPYYGGTTYNRKFKGKATLTVDKSSSTAYMQLKSLTSEDSAVYYCARSVGPMDYWGQGTSVTVSS VL: DIQMTQSPASLSASVGETVTITCRTSENVYSYLAWYQQKQGKSPQLLVSFAKTLAEGVPSRFSGSGSGTQFSLKISSLQPEDSGSYFCQHHSDNPWTFGGGTELEIKR",,,,,,,,,,,,,
